Data taken from patent US10800714B2, “Low VOC and low odor aromatic oil” (Dow Global Technologies LLC, priority 2015, dated 2020).

Assays:
Format in all cases: physicochemical
[1] = NBPT mixture storage at −20° C. for 4 weeks (crystal formation, flowability); conditions: solution free of crystal or flowable at −20° C.
Method: Recipe: 20 wt % NBPT/80 wt % Solvent
(§1) Each NBPT mixture is stored at three temperatures, room temperature (20-25° C.), 55° C., and −20° C. for 4 weeks to evaluate storage stability at elevated, ambient, and sub-ambient conditions. After 4 weeks of storage, the samples are visually inspected for (1) color, which is an indication of degradation, and (2) crystal formation, which is an indicator of insufficient solvency to carry 20 wt % NBPT.
(§2) NBPT is considered compatible with a solvent if the mixture remained clear, crystal free, and flowable at −20° C. for four weeks, and has little color (colorless or pale yellow) after four weeks at 55° C.

[2] = Compatibility of NBPT with solvent (storage study overall); conditions: clear, crystal free, flowable at −20° C. for four weeks and little color after four weeks at 55° C.; 20 wt % NBPT
Method: as §1, §2

[3] = Solvent vapor pressure at 20° C.; conditions: neat solvent
Method: • (1) a vapor pressure of less than or equal to (≤) 0.01 millimeters of mercury (mmHg) at 20° C. as measured by ASTM E1719, • (2) a flash point equal to or greater than (≥) 200° F. (93° C.) as measured by ASTM D3278, • (3) a viscosity less than or equal to (≤) 200 centipoise (cP) at 25° C. as measured by ASTM D445, • (4) a hydroxyl number from 100 to 1,000 as measured by ASTM D4274, and • (5) a VOC content less of than or equal to (≤) 50 weight percent (wt %) as measured by ASTM D6886.
In one embodiment, the fertilizer stabilizer compositions of this invention have a low vapor pressure, typically less than or equal to (≤) 0.01 millimeters of mercury (mmHg), or ≤0.001 mmHg, or ≤0.0001 mmHg, at 20° C. as measured by ASTM E1719.
Only two glycol ethers are identified as compatible with NBPT: methyl CARBITOL™ (as described in WO 2014/028767 A1 and WO 2008/000196 A1, an alkyl glycol ether not of Formula 1, and a comparative sample) and DOWANOL™ EPh6 (a mixture of glycol ethers comprising at least two structures of Formula 1, and an inventive sample). […]

CC(O)COc1ccccc1 (stereo not drawn) [DOWANOL PPh]
Solvency to carry 20 wt % NBPT [1]: not able to produce a NBPT mixture that provides sufficient solvency to carry 20 wt % NBPT

OCCOCCOc1ccccc1 [DOWANOL DiEPh]
Solvency to carry 20 wt % NBPT [1]: not able to produce a NBPT mixture that provides sufficient solvency to carry 20 wt % NBPT

COCCOCCO [Methyl CARBITOL]
Compatibility with NBPT [2]: compatible
Vapor pressure mmHg at 20° C. [3]: 0.23 mmHg
Vapor pressure mmHg at 20° C. ([3]; listed as methyl CARBITOL™): > 0.1 mmHg

OCCOc1ccccc1 [DOWANOL EPh]
Solvency to carry 20 wt % NBPT [1]: not able to produce a NBPT mixture that provides sufficient solvency to carry 20 wt % NBPT
